Data as given in patent US20250186656A1, “SHAPE MORPHING HYDROGEL ACTUATORS AND CONSTRUCTS” (Case Western Reserve University, priority 2022, published 2025).

Columns and labels:
[1] = test system: NIH 3T3 cell-laden bilayer constructs (cell-generated forces, actin polymerization); assay: Cytochalasin D treatment of cell-laden bilayer constructs; assay type: cell-based
Description: To accomplish bilayer printing, two syringes were loaded into the 3D printer: the first contained only reconstituted OMA microgels (cell-free bioink); the second contained the cell-laden bioink. For bilayer rectangles, a 25 mm×25 mm×0.2 mm square was printed with the cell-free bioink. Three cell-laden rectangles measuring 18 mm×4 mm×0.6 mm were then printed directly on top of the cell-free square, spaced 4 mm apart. After crosslinking constructs with UV light, the cell-free layer was cut with a razor blade to match the geometry of the cell-laden rectangles, forming bilayer rectangles. Dead controls were generated by incubating cells in acetone for 30 minutes before forming the cell-laden bioink.
To further illustrate the role of cell-generated forces in the observed spatiotemporal changes, the effect of Cytochalasin D, a known inhibitor of actin polymerization, was studied. Cytochalasin D was weighed and dissolved in sterile dimethyl sulfoxide (DMSO) at a concentration of 5 mM and stored at 4° C. Bilayer rectangles were printed and cultured in culture media supplemented with 0.1% v/v Cytochalasin D, resulting in a final Cytochalasin D concentration of 5 μM. Half of the media was replaced every day, with fresh Cytochalasin D added at 0.1% v/v each time. To ensure that any change in behavior is being caused by Cytochalasin D and not DMSO, four bilayer rectangles were cultured in culture media with 0.1% v/v DMSO. These media conditions were also compared to bilayer rectangles cultured in normal culture media.
After culture duration was complete, samples were fixed overnight in 10% neutral buffered formalin at room temperature. Samples were then dehydrated through one-hour incubations in 70% ethanol, 95% ethanol, 100% ethanol, 1:1 mixture of ethanol and xylenes, and two separate 100% xylenes. Samples were then submerged in molten paraffin for at least 24 hours before being embedded in paraffin blocks. 5-μm sections were obtained from blocks using a microtome and mounted on microscope slides. Hematoxilyn and eosin (H&E) sections were stained with hematoxilyn for 2 minutes followed by counterstaining with eosin for 30 seconds. Safrananin O and fast green sections were stained with 0.1% Safranin O for 5 minutes followed by counterstaining with 0.05% fast green for 1 minute. Alcian blue and nuclear fast red sections were stained with alcian blue ([…]) for 30 minutes followed by counterstaining with nuclear fast red for 5 minutes.
Dissection microscope images were used to measure bending angle as described in FIG. 72. Briefly, a circle with crosshairs was superimposed on each image using Microsoft Powerpoint. […] Using this method, a construct that has bent into a half circle is measured as 180 degrees, while a construct whose ends are touching is measured as 360 degrees. […]

cells = assay: Cytocompatibility of UV absorber HMAP (cell viability); assay type: cell-based; conditions: all the tested concentrations

| Structure (SMILES) | macroscopic shape change of bilayer constructs ([1]; 5 μM in growth medium, over duration of culture (14 days)) | cell death (live/dead) ([1]; 5 μM, day 14) | cell morphology (live/dead images) ([1]; 5 μM, day 14) | fibrous border formation (H&E histology) ([1]; 5 μM, day 14) | cell viability (cells) [%] |
| --- | --- | --- | --- | --- | --- |
| C=C1[C@@H](C)[C@H]2[C@H](Cc3ccccc3)NC(=O)[C@]23[C@H](OC(C)=O)/C=C/[C@@](C)(O)C(=O)[C@@H](C)C/C=C/[C@H]3[C@@H]1O [Cytochalasin D] | no macroscopic changes in shape | no sign of cell death | more rounded | unable to form this fibrous border | – |
| CC(=O)c1ccc(O)c(C)c1 [HMAP, 4′-hydroxy-3′-methylacetophenone] | – | – | – | – | > 90 |
